Consider twelve molecules from PubChem BioAssay (NCI).

Where “and” joins values, the source holds several entries; their conditions need not be identical. Equal entries are not always repeated.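 Protocol summary: plate cells (96-well), add compound at 5 concentrations, incubate 48 h, interpolate endpoints linearly. Here, GI50 denotes the concentration required for 50% inhibition of growth. TGI denotes the concentration required for complete inhibition of growth.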

Some test systems named below: HOP-62 NSCLC; A549 NSCLC; NCI-H522 lung; UO-31 renal; NCI-H460 lung; EKVX NSCLC; TK-10 renal; SNB-75 CNS; HL-60(TB) leukemia; RXF 393 renal.
Common to all, as to test: inhibition of tumour cell growth, NCI panel, 48 h

Turning to `O=C1c2c(O)cccc2C(C(=O)CCCCCC(=O)C2c3cccc(O)c3C(=O)c3c(O)cccc32)c2cccc(O)c21`, the GI50 is 5.45 µM with HOP-62 NSCLC; 6.6 µM with A549 NSCLC; 6.72 µM in the test on NCI-H522 lung; 7.85 µM in the test with UO-31 renal; 1.57 µM with NCI-H460 lung; 5.64 µM with EKVX NSCLC. Also, the GI50 in the test on TK-10 renal was 8.83 µM; with SNB-75 CNS, 1.69 µM. The TGI in the test with HOP-62 NSCLC was 6.96 µM and 16.9 µM; in the test on A549 NSCLC it was 3.68 µM and 14.5 µM; with UO-31 renal, 3.88 µM and 14.5 µM; with NCI-H460 lung, 1.62 µM and 5.23 µM; with EKVX NSCLC it was 3.68 µM and 19.5 µM; with TK-10 renal, 7.61 µM and 18.7 µM. The TGI with SNB-75 CNS is 6.15 µM and 7.22 µM; in the test on HL-60(TB) leukemia, 5.35 µM and 4.77 µM.

For the molecule `Oc1ccc2ccccc2c1CCc1c(O)ccc2ccccc12`, the TGI stood at 28.2 µM in the test on HOP-62 NSCLC; 25.3 µM with A549 NSCLC; 22.2 µM in the test on NCI-H460 lung; 26.4 µM in the test on EKVX NSCLC; 32.5 µM in the test with TK-10 renal; 27.5 µM with RXF 393 renal. Besides, the TGI was 18.3 µM in the test with SNB-75 CNS and 40.9 µM with HL-60(TB) leukemia.

As to `O=C(CCc1nc(=S)[nH][nH]1)Nc1cc(Cl)ccc1Cl`, the TGI in the test with HOP-62 NSCLC, with A549 NSCLC, in the test on NCI-H522 lung, in the test with UO-31 renal, in the test with NCI-H460 lung and in the test with EKVX NSCLC was greater than 100 µM in each case. Further, the TGI with TK-10 renal, with SNB-75 CNS and in the test with HL-60(TB) leukemia was greater than 100 µM in each case.

For `Cc1ccc2c(c1)[n+](=O)c(C(=O)c1cccs1)c(C(F)(F)F)n2[O-]`, the GI50 in the test with HOP-62 NSCLC was 2.39 µM and 0.689 µM; with A549 NSCLC, 1.72 µM and 0.764 µM; with NCI-H522 lung, 1.37 µM and 0.23 µM; with UO-31 renal, 1.35 µM; in the test on NCI-H460 lung, 0.616 µM and 0.359 µM; in the test with EKVX NSCLC it was 0.729 µM and 0.278 µM. The GI50 in the test on TK-10 renal was 0.718 µM; with SNB-75 CNS, 2.86 µM; with HL-60(TB) leukemia, 1.5 µM and 0.713 µM. The TGI with A549 NSCLC is 20.9 µM and 10.8 µM; in the test with UO-31 renal it was 50 µM; in the test with EKVX NSCLC, 1.87 µM and 0.746 µM; in the test on TK-10 renal, 3.22 µM; in the test with SNB-75 CNS, 17.3 µM; in the test with HL-60(TB) leukemia it was 33.7 µM and 57.3 µM.

Regarding `CCCCC(C(=O)C(=O)Nc1ccc(C)cc1C)C(=O)C(C)C` (stereo unspecified), the TGI with HOP-62 NSCLC, with A549 NSCLC, with UO-31 renal, in the test on NCI-H460 lung, in the test with EKVX NSCLC and with TK-10 renal was greater than 100 µM throughout. Also, the TGI with RXF 393 renal, in the test with SNB-75 CNS and in the test with HL-60(TB) leukemia was greater than 100 µM each time.

Turning to `O=C1OC(CC(=O)c2ccc(F)cc2)C(Cl)=C1Cl` (stereo unspecified), the TGI is 72.5 µM with HOP-62 NSCLC; greater than 100 µM in the test with A549 NSCLC; 34.9 µM with NCI-H522 lung; 38.5 µM in the test on UO-31 renal; 52.2 µM with NCI-H460 lung; greater than 100 µM with EKVX NSCLC. The results for the TGI in the test on TK-10 renal, in the test on RXF 393 renal and with HL-60(TB) leukemia were 91.1 µM, 37.5 µM and 62 µM, respectively.

Regarding `Cc1cc2c(cc1Cl)SC(N(c1ccccc1Cl)S(=O)(=O)c1ccc(Br)s1)=NS2(=O)=O`, the GI50 in the test on HOP-62 NSCLC is 37.5 µM; in the test on A549 NSCLC it was 25.7 µM; with NCI-H522 lung, 13.5 µM; in the test on UO-31 renal, 19.9 µM; with NCI-H460 lung it was 13.9 µM; in the test with EKVX NSCLC it was 21.9 µM. The figures for the GI50 with TK-10 renal, in the test on SNB-75 CNS and with HL-60(TB) leukemia were 21.9 µM, 17.3 µM and 16.4 µM, respectively. Also, the TGI with HOP-62 NSCLC was greater than 100 µM; with A549 NSCLC, greater than 100 µM; in the test on NCI-H522 lung it was 31.7 µM; with UO-31 renal, 62 µM; in the test with NCI-H460 lung, 36.3 µM; in the test with EKVX NSCLC it was 75.5 µM. For the same molecule, the TGI with TK-10 renal was 66.4 µM; in the test with SNB-75 CNS, 48.7 µM; in the test on HL-60(TB) leukemia, 41.9 µM.

For `NC(Cc1ccccc1)C(=O)OCN1C(=O)C2C3C=CC(C2C1=O)C1C2C(=O)N(COC(=O)C(N)Cc4ccccc4)C(=O)C2C31` (stereo unspecified), the TGI was greater than 100 µM in the test with HOP-62 NSCLC; 61.7 µM and 48.7 µM with A549 NSCLC; 27.4 µM and 30.8 µM in the test with NCI-H460 lung; greater than 100 µM in the test with EKVX NSCLC; greater than 100 µM in the test on TK-10 renal; 41.7 µM and 39.3 µM in the test on RXF 393 renal. Moreover, the TGI in the test with SNB-75 CNS was 64.6 µM and 62.3 µM; in the test on HL-60(TB) leukemia, 43.5 µM and > 100 µM. Also, in the test on UO-31 renal, the GI50 is 40.6 µM.

Take `O=C(NC1CCN(Cc2ccccc2)CC1)c1cc(-c2cccnc2)nc2ccc(Cl)cc12`: the GI50 was 11.8 µM in the test with HOP-62 NSCLC; 4.61 µM in the test with A549 NSCLC; 4.24 µM in the test with UO-31 renal; 4.24 µM in the test with NCI-H460 lung; 4.18 µM in the test on RXF 393 renal; 2.18 µM with SNB-75 CNS. Besides, in the test with HL-60(TB) leukemia, the GI50 was 8.27 µM. For the same molecule, the TGI in the test with HOP-62 NSCLC is 31.5 µM; in the test with A549 NSCLC it was 44.8 µM; with UO-31 renal, 21.4 µM; with NCI-H460 lung, 21.7 µM; in the test on RXF 393 renal, 19.4 µM; with SNB-75 CNS, 12.7 µM. The TGI with HL-60(TB) leukemia was 45.2 µM.

Turning to `CCCCCC/C=C/C#CCCCCCCCC(=O)O`, the TGI with A549 NSCLC, in the test with NCI-H522 lung, with NCI-H460 lung, with EKVX NSCLC, in the test on TK-10 renal and in the test with SNB-75 CNS was greater than 100 µM throughout. Further, in the test with HL-60(TB) leukemia, the TGI is greater than 100 µM.

In the case of `C[C@@H](C1CC[C@H]2[C@@H]3[C@@H]4O[C@@H]4[C@@]4(O)CC=CC(=O)[C@]4(C)[C@H]3C[C@H](O)[C@]12C)[C@H]1C[C@]2(C)O[C@]2(C)C(=O)O1` (stereo partly specified), the TGI in the test with A549 NSCLC, with NCI-H522 lung, with UO-31 renal, in the test on NCI-H460 lung, with EKVX NSCLC and in the test with TK-10 renal was greater than 100 µM throughout. Also, the TGI with SNB-75 CNS and in the test with HL-60(TB) leukemia was greater than 100 µM in each case.

As to `O=C1/C(=C/c2cccnc2)SC(=S)N1Cc1ccco1`, the TGI in the test with HOP-62 NSCLC is 27.1 µM; with A549 NSCLC, greater than 100 µM; in the test on NCI-H522 lung, 4.1 µM; in the test with UO-31 renal, 8.02 µM; in the test on NCI-H460 lung, 25.1 µM; in the test on EKVX NSCLC it was greater than 100 µM. Also, the TGI in the test on TK-10 renal was 10.8 µM; in the test with RXF 393 renal, 24.2 µM; in the test with HL-60(TB) leukemia, greater than 22 µM.
